Measured values published in US20100179221A1, “FLUORINE-SUBSTITUTED AMPHETAMINES AND AMPHETAMINE DERIVATIVES AND USE THEREOF” (Universitat Tubingen, priority 2007, published 2010).

Legend:
[1] = test system: Haloperidol-induced catalepsy; test: Haloperidol-induced catalepsy test (descent test), model for parkinsonism; assay type: in vivo, Sprague-Dawley rats; conditions: for descent latency: rats after haloperidol 0.5 mg/kg, compound 5 mg/kg, FIG. 1, vehicle control about 130 seconds
Experimental: (§1) Next, rats (Sprague-Dawley rats; Charles-River, Sulzfeld, Germany) were established as the animal model. The rats were kept in constant, reproducible conditions. Sprague-Dawley rats weighing about 220 to 300 g were used in the experiment. The rats were kept in groups. A light cycle of 12:12 hours was maintained (light switched on from 07:00 to 19:00 hours). For two weeks before the experiments, all the rats were kept in the same room. Water was made available ad libitum, standard animal feed was supplied once daily in an amount of 12 g per animal. All experiments were carried out between 09:00 and 17:00 hours and complied with international ethical standards and the German animal protection law. It was approved by the Animal Protection Commission, Tübingen Administrative Board, ZP 5/01.
Haloperidol-induced catalepsy is used here as a model for parkinsonism. Haloperidol is a dopamine receptor-blocking drug. The catalepsy induced in this way comprises akinesia and rigor. The haloperidol model can be treated with all known clinically effective antiparkinsonism drugs, as described above.
Dopamine hypofunction and the consequent parkinsonian symptoms were generated as follows.
Control Group: • Haloperidol (Haldol, Janssen®, Germany) was diluted with phosphate buffered saline (PBS; Sigma, Deisenhofen, Germany) to a concentration of 0.5 mg per ml. Twelve rats were each given an intraperitoneal (i.p.) injection of this solution with an absolute amount of haloperidol of 0.5 mg per kilogram of body weight and an injection with PBS.
Test Group: • Another twelve rats were treated identically, but instead of the PBS injection were given a fluorine-substituted amphetamine derivative 1-(3,4-difluorophenyl)-2-(N-ethylamino)propane (Formula III) dissolved in PBS.
The results of the descent tests are illustrated in FIG. 1. […] The descent latency of rats treated with MDMA (5 mg/kg) was much less, at about 30 seconds, but for the rats treated with 1-(3,4-difluorophenyl)-2-(N-ethylamino)propane (fMDE, Formula (III), 5 mg/kg) it was even lower.

[2] = test system: L-DOPA-induced dyskinesias; test: L-DOPA-induced dyskinesia (AIM) in 6-hydroxydopamine hemiparkinsonian rats; assay type: in vivo
Experimental: as §1
24 rats were put in deep narcosis. One hemisphere of the rats was treated in each case with the neurotoxin 6-hydroxydopamine, which destroyed dopaminergic neurons in this hemisphere. […] Then the animals were treated intraperitoneally with an antiparkinsonian drug twice daily for 25 days. This comprised L-DOPA-methyl ester in an amount of 10 mg per kg of body weight with benserazide in an amount of 7.5 mg per kg of body weight (Sigma, Deisenhofen, Germany). Under this treatment the rats developed dyskinesias of the contralateral forepaws.
Control Group: • Continuing this treatment, 12 of the 24 rats were treated additionally with PBS.
Test Group: • The other twelve rats were treated additionally with a fluorinated amphetamine derivative 1-(3,4-difluorophenyl)-2-(N-ethylamino)propane (Formula III).
The results for the treatment are illustrated in FIG. 2. The dyskinesia was quantified (AIM=abnormal involuntary movements) in the control group on five successive days. […] For comparison, the dyskinesia quantification of the test group, i.e., the animals additionally treated with 1-(3,4-difluorophenyl)-2-(N-ethylamino)propane (Formula (III), fMDE, 5 mg/kg), was observed. The measurements were in each case recorded 60 minutes after the animals were treated. […]

SMILES | descent latency [1] | onset of the antidyskinetic effect ([2]; 5 mg/kg, administration on successive days) | number of AIMs (abnormal involuntary movements) per 4 min versus vehicle control ([2]; 5 mg/kg, recorded 60 minutes after treatment, five successive days, FIG. 2) | expression of the dyskinesias, test group versus control group ([2]; in addition to L-DOPA-methyl ester 10 mg/kg + benserazide 7.5 mg/kg) | akinesia and rigor in the catalepsy test, test group versus control group ([1]; haloperidol 0.5 mg/kg i.p., compound dissolved in PBS, versus haloperidol + PBS)
CNC(C)Cc1ccc2c(c1)OCO2 (stereo not drawn) [MDMA, 3,4-methylene dioxymethamphetamine, reference compound] | about 30 seconds |  |  |  | 
CCNC(C)Cc1ccc(F)c(F)c1 (stereo not drawn) [Formula III, 1-(3,4-difluorophenyl)-2-(N-ethylamino)propane] | even lower | already seen on the first day | almost halved | significantly reduced | significantly less pronounced
